# Data published in US8895568B2, “Compositions comprising substituted pteridines as agrochemicals” (Dow AgroSciences LLC, priority 2009, dated 2014).
# Where two headings read alike, the source gives them in different places.
# Columns and labels:
# Type in all cases: in vivo
# [1] = system: Cochliobolus sativus; assay: Spot Blotch of Wheat (COCHSA), foliar spray, percent disease control
# [2] = system: Colletotricum lagenarium; assay: Cucumber Anthracnose (COLLLA), foliar spray, percent disease control; conditions: foliar
# Procedure: The activity of the compounds as effective fungicides was determined by applying the compounds to plants and observing control of fungal disease. The compounds were formulated at 200 ppm in 10 vol. % acetone plus 90 vol. % Triton X water (deionized water 99.99 wt %+0.01 wt % Triton X100), giving a “formulated test compound.” In a few cases, compounds were formulated at 75 or 8.3 ppm rather than 200 ppm in 10 vol. % acetone plus 90 vol. % Triton X water (deionized water 99.99 wt. %+0.01 wt. % Triton X100), giving a “formulated test compound.” Formulated test compounds were applied to plants using a turn table sprayer fitted with two opposing air atomization nozzles which delivered approximately 1500 L/ha of spray volume. All plants were inoculated with spores of the fungus the day after treatment, then incubated in an environment conducive to disease development. Disease severity was evaluated 4 to 15 days later, depending on the disease and the speed of disease development. The following experiments were performed in the laboratory to determine the fungicidal efficacy of the compounds of the invention. Cucumber Anthracnose (causal agent Colletotricum lagenarium; Bayer code COLLLA): Cucumber plants (variety Bush Champion) were grown from seed in a soil-less peat-based potting mixture (Metromix) until the first true leaf was 20-80% expanded. Each pot contained 1 seedling. These plants were sprayed until wet with the formulated test compound. On the following day, the leaves were inoculated with an aqueous spore suspension of Colletotricum lagenarium and the plants were kept in high humidity for one day to permit spores to germinate and infect the leaf. The plants were then transferred to a growth chamber until disease developed on untreated control plants. […] The effectiveness of the test compounds at controlling disease when sprayed on leaves was determined by assessing the severity of disease on treated plants, then converting the severity to percent control based on the level of disease on untreated, inoculated plants. Data are the level (in percent) at which the given disease was controlled when the given compound was applied to the foliage of the plants at 200 ppm. In a few cases (noted in the table) the compound was applied to the plants at 75 ppm or 8.3 ppm.
# [3] = system: Pseudoperonospora cubensis; assay: Cucumber Downy Mildew (PSPECU), foliar spray, percent disease control; conditions: foliar, read-out: PSPECU percent control
# Procedure: The activity of the compounds as effective fungicides was determined by applying the compounds to plants and observing control of fungal disease. The compounds were formulated at 200 ppm in 10 vol. % acetone plus 90 vol. % Triton X water (deionized water 99.99 wt %+0.01 wt % Triton X100), giving a “formulated test compound.” In a few cases, compounds were formulated at 75 or 8.3 ppm rather than 200 ppm in 10 vol. % acetone plus 90 vol. % Triton X water (deionized water 99.99 wt. %+0.01 wt. % Triton X100), giving a “formulated test compound.” Formulated test compounds were applied to plants using a turn table sprayer fitted with two opposing air atomization nozzles which delivered approximately 1500 L/ha of spray volume. All plants were inoculated with spores of the fungus the day after treatment, then incubated in an environment conducive to disease development. Disease severity was evaluated 4 to 15 days later, depending on the disease and the speed of disease development. The following experiments were performed in the laboratory to determine the fungicidal efficacy of the compounds of the invention. Cucumber Downy Mildew (causal agent Pseudoperonospora cubensis; Bayer code […]): Cucumber plants (variety Bush Champion) were grown from seed in a soil-less peat-based potting mixture (Metromix) until the first true leaf was 20-80% expanded. Each pot contained 1 seedling. These plants were sprayed until wet with the formulated test compound. On the following day, the leaves were inoculated with an aqueous suspension of downy mildew sporangia and the plants were kept in high humidity for one day to permit sporangia to germinate and infect the leaf. The plants were then incubated in a growth chamber until disease developed on untreated control plants. […] The effectiveness of the test compounds at controlling disease when sprayed on leaves was determined by assessing the severity of disease on treated plants, then converting the severity to percent control based on the level of disease on untreated, inoculated plants. Data are the level (in percent) at which the given disease was controlled when the given compound was applied to the foliage of the plants at 200 ppm. In a few cases (noted in the table) the compound was applied to the plants at 75 ppm or 8.3 ppm.
# [4] = Bipolaris sorokiniana, foliar; read-out: COCHSA percent control
# [5] = Bipolaris sorokiniana, foliar, read-out: COCHSA percent control
Structure (SMILES),"pest or weed control at 200 µg/mL [1, 4]",pest or weed control at 200 µg/mL [2],pest or weed control at 200 µg/mL [3],"pest or weed control at 200 µg/mL [1, 5]"
Oc1cccc(OCCNc2ncnc3nccnc23)c1 [Compound 81],0 to 49%,0 to 49%,80 to 100%,
FC(F)(F)c1ccnc(Oc2ccc(OCCNc3ncnc4nccnc34)cc2)c1 [Compound 83],0 to 49%,80 to 100%,80 to 100%,
N#Cc1ccnc(Oc2ccc(OCCNc3ncnc4nccnc34)cc2)c1 [Compound 85],0 to 49%,0 to 49%,80 to 100%,
FC(F)(F)c1ccnc(Oc2cccc(OCCNc3ncnc4nccnc34)c2)c1 [Compound 86],0 to 49%,0 to 49%,80 to 100%,
FC(F)(F)c1ccc(Oc2cccc(OCCNc3ncnc4nccnc34)c2)nc1 [Compound 87],0 to 49%,0 to 49%,80 to 100%,
N#Cc1ccnc(Oc2cccc(OCCNc3ncnc4nccnc34)c2)c1 [Compound 88],0 to 49%,0 to 49%,80 to 100%,
Fc1nc(C(F)(F)F)c(F)c(Oc2ccc(CCNc3ncnc4nccnc34)cc2)c1F [Compound 89],0 to 49%,0 to 49%,80 to 100%,
Fc1nc(F)c(F)c(Oc2ccc(CCNc3ncnc4nccnc34)cc2)c1F [Compound 94],0 to 49%,50 to 79%,50 to 79%,
O=Cc1cc(C(F)(F)F)ccc1Oc1ccc(CCNc2ncnc3nccnc23)cc1 [Compound 100],0 to 49%,0 to 49%,80 to 100%,
O=Cc1cc(Cl)cnc1Oc1ccc(CCNc2ncnc3nccnc23)cc1 [Compound 102],0 to 49%,0 to 49%,80 to 100%,
FC(F)(F)c1cc(Oc2ccc(CCNc3ncnc4nccnc34)cc2)nc(C(F)(F)F)c1 [Compound 115],0 to 49%,0 to 49%,80 to 100%,
N#Cc1c(Cl)cncc1Oc1ccc(CCNc2ncnc3ncc(Cl)nc23)cc1 [Compound 119],0 to 49%,0 to 49%,0 to 49%,
"Fc1ccc(-c2ccc(CCNc3ncnc4nccnc34)cc2)cn1 [Compound 121, {2-[4-(6-Fluoropyridin-3-yl)-phenyl]-ethyl}-pteridin-4-yl-amine]",0 to 49%,0 to 49%,80 to 100%,
FC(F)(F)c1ccc(Oc2ccc(CCNc3ncnc4ncc(Cl)nc34)cc2)nc1 [Compound 124],0 to 49%,0 to 49%,80 to 100%,
N#Cc1cc2ccccc2nc1Oc1ccc(CCNc2ncnc3nccnc23)cc1 [Compound 127],0 to 49%,0 to 49%,50 to 79%,
"CC(C)(C)[Si](C)(C)Oc1ccc(CCNc2ncnc3nccnc23)cc1 [Compound 133, {2-[4-(tert-Butyldimethylsilanyloxy)-phenyl]-ethyl}-pteridin-4-yl-amine]",,0 to 49%,80 to 100%,0 to 49%
"CC(C)(C)OC(=O)N(CCc1ccc(O[Si](C)(C)C(C)(C)C)cc1)c1ncnc2nccnc12 [Compound 134, {2-[4-(tert-Butyldimethylsilanyloxy)-phenyl]-ethyl}-pteridin-4-yl-carbamic acid tert-butyl ester]",,0 to 49%,0 to 49%,0 to 49%
